Test results reported in EP1092427B1, “Use of a peptide avoiding skin intolerance reactions, especially in cosmetic compositions” (L'ORÉAL, priority 1999, dated 2007).
Non-standard residues stand in square brackets, D forms with d. Residues, ends and D or L forms follow the SMILES beside them.

Legend:
souris femelles Balb/C [1] = experiment: TNCB contact hypersensitivity in mice after a second sensitisation (tolerance test, ear swelling); assay type: in vivo
Text: 14 jours après la fin de l'expérience décrite en a) ci-dessus, on soumet les mêmes souris à une nouvelle réaction de sensibilisation sur la peau rasée du dos, comme décrit en a).
7 jours plus tard, on effectue le test de déclenchement par application du TNCB sur l'oreille, et 24 heures plus tard, on mesure le degré de gonflement de l'oreille.
Cette seconde expérience a pour but de faire une distinction entre une éventuelle immunosuppression temporaire aspécifique et une tolérance immunologique spécifique.

patients volontaires = experiment: Topical effect in human volunteers with nickel contact allergy (nickel sulfate patch test); assay type: in vivo, homme; conditions: out of 14 nickel-sensitised persons; cream with 100 µM peptide under occlusive dressing on back skin 2 h before 5 % nickel sulfate patch; read 24 h later
Description: Cette étude a été effectuée sur des patients volontaires âgés de 18 à 65 ans, chez lesquels une allergie de contact au nickel était suspectée. Ces patients étaient exempts d'autres maladies cutanées, et les résultats de cette étude montrent qu'ils n'avaient pas d'allergie aux constituants de la crème utilisée comme véhicule.
Au jour 0, on applique avec un pansement occlusif, sur des zones de la peau du dos, d'une part une crème contenant 100 µM du peptide de formule II, et d'autre part la crème seule, sans peptide, utilisée comme placebo.
Deux heures plus tard, on applique sur les mêmes zones de la peau, et aussi sur une zone adjacente non prétraitée, des patchs imprégnés de vaseline contenant du sulfate de nickel à une concentration de 5 %.
24 heures plus tard, on examine les patients. Ceux qui ont développé une réaction d'hypersensibilité de contact sur la zone traitée par le placebo (et aussi sur la zone adjacente n'ayant reçu que l'application de sel de nickel), et qui sont donc des personnes qui étaient déjà sensibilisées au nickel, sont au nombre de 14. Sur ces 14 personnes, 7 n'ont développé aucune réaction d'hypersensibilité de contact sur la zone traitée par le peptide.

souris femelles Balb/C [2] = experiment: TNCB contact hypersensitivity in mice, peptide injected intravenously before sensitisation (ear swelling); assay type: in vivo
Description: (§1) L'étude est effectuée sur des souris femelles Balb/C âgées de 7 à 10 semaines.
On injecte une dose de 1,5 µg du peptide étudié (en solution dans du tampon PBS contenant 0,1 % de sérum de souris) dans une veine de la queue des souris 2 heures avant la réaction de sensibilisation.
(§2) La réaction de sensibilisation consiste à appliquer au pinceau 100 µl d'une solution à 0,15 % de TNCB dans un mélange acétone-huile d'olive (4:1) sur la peau rasée de l'abdomen des souris.
(§3) La réaction déclenchante est réalisée 7 jours après la réaction de sensibilisation. Cette réaction déclenchante consiste à appliquer sur les deux faces d'une oreille 10 microlitres d'une solution à 0,8 % de TNCB dans un véhicule constitué par le mélange acétone-huile d'olive déjà mentionné ci-dessus.
(§4) Sur l'autre oreille, on applique, pour comparaison, uniquement ce mélange d'acétone et d'huile d'olive.
(§5) On évalue l'intensité d'une éventuelle réaction d'hypersensibilité de contact par estimation de l'importance de l'oedème de l'oreille traitée par le TNCB, en comparaison avec l'oreille traitée par le seul véhicule. Pour cela, on mesure et compare l'épaisseur des oreilles à l'aide d'une vis micrométrique. Cette mesure est effectuée 24 heures après la réaction déclenchante.
On applique également le TNCB sur l'oreille de souris témoins n'ayant pas été préalablement sensibilisée (témoins négatifs). […]

souris femelles Balb/C [3] = experiment: TNCB contact hypersensitivity in mice, peptide applied topically in a water-in-oil cream (ear swelling); assay type: in vivo; conditions: peptide in water-in-oil cream applied on the zone to be sensitised 2 h before sensitisation; measured 24 h after challenge; positive controls 7×10^-2 mm
Description: as §1, §2, §3, §4, §5
On opère comme en a) ci-dessus, mais le peptide, incorporé dans une crème de type eau-dans-l'huile, est appliqué sur la zone à sensibiliser 2 heures avant la sensibilisation.

CC(=O)N[C@H](CCCCN)C(=O)N1CCC[C@@H]1C(=O)N[C@@H](C(N)=O)C(C)C [peptide de formule II, Ac-D-Lys-D-Pro-D-Val-NH2] (Ac-[dK]-[dP]-[dV]-NH2)
hypersensibilité de contact après une seconde dose sensibilisante de TNCB (result in words) (souris femelles Balb/C [1]; mice treated with peptide before the first sensitisation only): n'ont pas développé une hypersensibilité de contact | degré de gonflement de l'oreille (souris femelles Balb/C [1]; same mice re-sensitised with TNCB on the back 14 days after first experiment, no new peptide dose, challenge 7 days later, measured 24 h later, positive controls about 14×10^-2 mm, negative controls about 3,5×10^-2 mm): ~3,5×10^-2 mm | personnes n'ayant développé aucune réaction d'hypersensibilité de contact sur la zone traitée par le peptide (patients volontaires): 7 | réaction d'hypersensibilité de contact (result in words) (souris femelles Balb/C [2]; 1,5 µg peptide i.v. 2 h before TNCB sensitisation): réduit fortement la réaction d'hypersensibilité de contact | augmentation de l'épaisseur de l'oreille (souris femelles Balb/C [2]; 1,5 µg peptide i.v. (tail vein) 2 h before sensitisation with 0,15 % TNCB, challenge day 7 with 0,8 % TNCB on ear, measured 24 h after challenge, ^-2 mm, negative controls about 1×10^-2 mm): ~2,5×10^-2 mm | augmentation de l'épaisseur de l'oreille (souris femelles Balb/C [3]): 3×10^-2 mm
